Entries after “also recorded” stand apart in the source; their conditions may differ. Non-standard residues stand in square brackets, D forms with d. Residues, ends and D or L forms follow the SMILES beside them. *: point of attachment. Nle = CCCC[C@H](N)C(=O)O; Cbz = O=C(OCc1ccccc1)*; OtBu = CC(C)(C)O*
Key:
[1] = system: Vif-dependent down modulation of APOBEC3G-Myc; assay: Western immunoblotting of APOBEC3G-Myc in cotransfected 293T cultures that contain or lack Vif; format: cell-based, human; conditions: for quantity of APOBEC3G-Myc in the cultures that contained Vif: incubated 10 hours, FIG. 11A
Text: (§1) Expression vectors: pHIV-gpt(wt) and its derivative pHIV-gpt(Δvif) were previously described (Madani & Kabat, J. Virol. 72, 10251–10255, 1998; Page et al., J Virol 64, 5270–5276, 1990; Madani & Kabat, J. Virol. 74, 5982–5987, 2000). pcDNA3.1-Vif was donated by D. Gabuzda (Dana-Farber Cancer Institute, Harvard, Boston, Mass.). Rev-dependent plasmids for expression of the Vif mutants Δ2, Δ5, Δ6, Δ7, Δ9, Δ10, Δ12 and Δ13 (Simon et al., J. Virol. 73, 2675–2681, 1999) were provided by M. Malim (Medical Research Council, Cambridge, UK) and were coexpressed with pHIV-gpt(Δvif). APOBEC3G cDNA was cloned from H9 cells (nonpermissive) by reverse transcriptase-PCR (Barnes, Proc. Natl. Acad. Sci. USA 91, 2216–2220, 1994; Sambrook et al., Molecular Cloning. A Laboratory Manual, Chapter 14, 14.5–14.34., CSHL Press, Cold Spring Harbor, 1989) using primers complementary to the 5′ and 3′ ends of APOBEC3G coding region (Sheehy et al., Nature 418, 646–650, 2002) (upstream primer, 5′-[…]-3′ (SEQ ID NO: 15) containing an XhoI restriction site [underlined]; downstream primer, 5′-[…]-3′ (SEQ ID NO: 16) containing a SfuI restriction site [underlined]). The cDNA was cloned between XhoI and SfuI into the pcDNA3.1/Myc-His C mammalian expression vector (Invitrogen) to obtain the pcDNA3.1-APOBEC3G-Myc vector. The pSVIIIEnv vector was used to pseudotype HIV-gpt virions (Helseth et al., J. Virol. 64, 2416–2420, 1990). Transfections employed PolyFect reagent (Qiagen, Inc.) according to the manufacturer's instructions, with equimolar ratios of all plasmids and with harvests after 36 hours unless otherwise mentioned. Viruses: HIV-gpt virions were produced and titered as previously described (Page et al., J Virol 64, 5270–5276, 1990; Page et al., J Virol 66, 524–533, 1992; Platt et al., J. Virol. 75, 12266–12278, 2001). For viral purifications, 27 ml of the virus-containing media from 293T cells were pelleted through 2 ml of a 20% sucrose at 100,000 g for 1.5 hours. Virions were resuspended in TSE (0.1 M NaCl, 1 mM EDTA, 0.01M Tris-Cl, pH 7.4), and centrifuged to equilibrium in 5 ml 20–60% sucrose gradients in TSE at 200,000 g for 2.5 hours. Virus-containing fractions were detected by immunoblotting using HIV Immunoglobulin serum (AIDS Research & Reference Reagent Program, Division of AIDS, NIAID, NIH: contributed by NABI and NHLBI). Peak fractions were pooled, diluted with TSE, and pelleted through 20% sucrose at 100,000 g for two hours. Analysis of proteins and RNAs: Extracts of cotransfected 293T and COS7 cultures were prepared using either TX (1% Triton X-100, 150 mM NaCl, 10 mM Tris-Cl, pH 7.5, 1 mM MgCl) or RIPA (50 mM Tris-Ci pH 7.4, 1% Nonidet P40, 0.1% sodium deoxycholate, 150 mM NaCl) buffers with complete protease inhibitors (Roche), followed by centrifugation at 1,500 g for 5 minutes to sediment nuclei. Extracts were adjusted to equivalent protein concentrations using the Bradford reagent (BioRad Laboratories), and equal aliquots were then used for Western immunoblotting (Marin et al., J. Virol. 74, 8085–8093, 2000) or for immunoprecipitations (Klippel et al., Mol. Cell. Biol. 14, 2675–2685, 1994) using the antibodies HIV-1 HXB2 Vif rabbit antiserum #2221, (AIDS Research and Reference Reagent Program, Division of AIDS, NIAID, NIH: contributed by Dr. D. Gabuzda), Myc-specific monoclonal antibody clone 9E10 (Sigma) (Marin et al., J. Virol. 74, 8085–8093, 2000), or the ubiquitin-specific mouse monoclonal antibody (Zymed). […] Where indicated, cultures were preincubated with 50 μM concentrations of the proteasome inhibitors ALLN, MG-132, or Proteasome Inhibitor-I (Calbiochem).

[2] = system: total cellular polyubiquitinated proteins; assay: Western blot of total cell culture extracts with ubiquitin-specific antibody; format: cell-based, human; conditions: 293T; for amounts of total polyubiquitinated proteins (inhibitor activity in cultures with and without Vif): 50 μM inhibitor; for quantities of total cellular polyubiquitinated proteins (inhibitor activity in both cultures): preincubated 6 hours, FIG. 9B
Text: as §1

[3] = system: Vif-mediated elimination of YFP-APOBEC3G; assay: Fluorescence of YFP-APOBEC3G in 293T cultures cotransfected with Vif; format: cell-based, human; conditions: ALLN for eight hours
Text: Using methods essentially similar to those described in Example 1, a vector was constructed that encodes a chimeric protein containing the yellow fluorescent protein (YFP) at the amino terminus and APOBEC3G at the carboxyl terminus (YFP-APOBEC3G; SEQ ID NOs: 3 and 4). Cotransfection of plasmids that encode this chimera and Vif into human 293T cell cultures results in only a few fluorescent cells, consistent with a Vif-induced degradation (FIG. 13A, top two panels). In contrast, cotransfection with a vector lacking Vif results in a much larger fraction of fluorescent cells.

[4] = system: polyubiquitinated APOBEC3G; assay: Ni-NTA purification of APOBEC3G-Myc in 8M urea and immunoblotting with ubiquitin-specific antibody; format: cell-based, human; conditions: 293T; ALLN 10 hours; FIG. 11B
Text: Expression vectors: pHIV-gpt(wt) and its derivative pHIV-gpt(Δvif) were previously described (Madani & Kabat, J. Virol. 72, 10251–10255, 1998; Page et al., J Virol 64, 5270–5276, 1990; Madani & Kabat, J. Virol. 74, 5982–5987, 2000). pcDNA3.1-Vif was donated by D. Gabuzda (Dana-Farber Cancer Institute, Harvard, Boston, Mass.). Rev-dependent plasmids for expression of the Vif mutants Δ2, Δ5, Δ6, Δ7, Δ9, Δ10, Δ12 and Δ13 (Simon et al., J. Virol. 73, 2675–2681, 1999) were provided by M. Malim (Medical Research Council, Cambridge, UK) and were coexpressed with pHIV-gpt(Δvif). APOBEC3G cDNA was cloned from H9 cells (nonpermissive) by reverse transcriptase-PCR (Barnes, Proc. Natl. Acad. Sci. USA 91, 2216–2220, 1994; Sambrook et al., Molecular Cloning. A Laboratory Manual, Chapter 14, 14.5–14.34., CSHL Press, Cold Spring Harbor, 1989) using primers complementary to the 5′ and 3′ ends of APOBEC3G coding region (Sheehy et al., Nature 418, 646–650, 2002) (upstream primer, 5′-[…]-3′ (SEQ ID NO: 15) containing an XhoI restriction site [underlined]; downstream primer, 5′-[…]-3′ (SEQ ID NO: 16) containing a SfuI restriction site [underlined]). […] Virus-containing fractions were detected by immunoblotting using HIV Immunoglobulin serum (AIDS Research & Reference Reagent Program, Division of AIDS, NIAID, NIH: contributed by NABI and NHLBI). […]

APOBEC3G-Myc = assay: Immunofluorescence microscopy of Vif and APOBEC3G-Myc in cotransfected COS7 cells; format: cell-based, African green monkey; conditions: ALLN in DMSO, FIG. 5B
Experimental: For immunofluorescence, COS7 cells were used because they are more adherent than 293T cells. Cells cultured in Permanox chamber slides (Nalge Nunc International) were fixed in 5% formaldehyde and 2% sucrose in PBS (Invitrogen) at room temperature for 20 minutes, and permeabilized with 1% Triton X-100 in PBS with 10% sucrose for 30 minutes. Primary antibodies were Vif antiserum #2221 or the Myc-specific monoclonal antibody 9E10. Secondary fluorescent antibodies were Alexa Fluor 488 goat anti-rabbit IgG(H+L) and Alexa Fluor 594 goat anti-mouse IgG (H+L) (Molecular Probes Inc), which reacted only with their species-specific primary antibodies. Slides were mounted in FluoroGuard (BioRad Laboratories), and observed with a Zeiss Axiovert 200M deconvolution microscope. The percentage of double-positive cells in FIG. 5B is defined as the percentage of the Vif-positive cells and that contained APOBEC3G-Myc. RNA extraction and Northern blot analyses were previously described (Tailor et al., Proc. Natl. Acad. Sci. USA 96, 927–932, 1999). A cDNA probe for the S2 ribosomal protein was used as a loading control.

Compound | control protein α-tubulin ([1]; 50 μM inhibitor, 6–10 hour) | quantities of APOBEC3G-Myc in the cultures that contained Vif ([1]; 50 μM inhibitor, 6–10 hour) | quantities of APOBEC3G-Myc in the cultures that lacked Vif ([1]; 50 μM inhibitor, 6–10 hour) | quantity of APOBEC3G-Myc in the cultures that contained Vif [1] | quantities of APOBEC3G-Myc in the cultures that contained Vif ([1]; preincubated 6 hours, FIG. 9B) | quantities of APOBEC3G-Myc in the cultures that lacked Vif ([1]; preincubated 6 hours, FIG. 9B) | amounts of total polyubiquitinated proteins (inhibitor activity in cultures with and without Vif) [2] | quantities of total cellular polyubiquitinated proteins (inhibitor activity in both cultures) [2] | cells with YFP-APOBEC3G fluorescence in the culture that contains Vif [3] | amount of polyubiquitinated APOBEC3G-Myc, effect of proteasome inhibitor [4] | percentage of cells that coexpressed wild-type Vif and APOBEC3G-Myc (APOBEC3G-Myc)
CC[C@H](C)[C@H](NC(=O)OCc1ccccc1)C(=O)N[C@@H](CCC(=O)OC(C)(C)C)C(=O)N[C@@H](C)C(=O)N[C@H](C=O)CC(C)C [Proteasome Inhibitor-I] (Cbz-IE(OtBu)AL-aldehyde) | no effect | increased the quantities of APOBEC3G-Myc | not in the cultures that lacked Vif | increased the quantity of APOBEC3G-Myc | increased the quantities of APOBEC3G-Myc | not in the cultures that lacked Vif | active in both cultures | active in both cultures |  |  | 
CC(C)C[C@@H](C=O)NC(=O)[C@H](CC(C)C)NC(=O)[C@H](CC(C)C)NC(=O)OCc1ccccc1 [MG-132] (Cbz-Leu-Leu-Leu-aldehyde) | no effect | increased the quantities of APOBEC3G-Myc | not in the cultures that lacked Vif | increased the quantity of APOBEC3G-Myc | increased the quantities of APOBEC3G-Myc | not in the cultures that lacked Vif | active in both cultures | active in both cultures |  |  | 
CCCC[C@@H](C=O)NC(=O)[C@H](CC(C)C)NC(=O)[C@H](CC(C)C)NC(C)=O [ALLN] (Ac-Leu-Leu-[Nle]-aldehyde) | no effect | increased the quantities of APOBEC3G-Myc | not in the cultures that lacked Vif | increased the quantity of APOBEC3G-Myc | increased the quantities of APOBEC3G-Myc | not in the cultures that lacked Vif | active in both cultures | active in both cultures | reverses the Vif-dependent elimination of the chimeric protein; also recorded: blocks Vif-mediated elimination of YFP-APOBEC3G; also recorded: accumulate in many more cells | substantially increased; also recorded: greatly increased | dramatic increase in coexpression; also recorded: this decrease was alleviated by ALLN

From US7220554B2, “Methods for identifying inhibitors” (priority 2003, dated 2007)
